Data taken from PubChem BioAssay AID652241 (Broad Institute, 2013).
Inconclusive results are not listed. Active and inactive are the calls of the source.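 The calls were made as follows: active = fitted curve reaches activity 50 in the expected rising direction at or below the top valid tested dose; inconclusive = no clear call, values can overlap the other calls; inactive = activity in the wrong direction, and the rest.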

Biological target: Virion infectivity factor (Human immunodeficiency virus type 1 group M subtype B (isolate BH10)) + Virion infectivity factor (Human immunodeficiency virus type 1 group M subtype B (isolate BRU/LAI)) + Virion infectivity factor (Human immunodeficiency virus type 1 group M subtype B (isolate PCV12)) + Virion infectivity factor (Human immunodeficiency virus type 1 group M subtype B (isolate HXB2)) (UniProt P69720+P69721+P69722+P69723)
Experiment: Vif multimerization inhibitor potency, dose response, imaging, HEK293T, cherry-picks (AID 652241);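 also: imaged cell signal that rises when Vif self-association is disrupted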
Conditions: 24 h

| Structure (SMILES) | activity, higher = inhibition (at 19.5 µM (top of the series)) | also measured |
| --- | --- | --- |
| Cc1cc(OCC(C)C)ccc1/C(O)=C1/C(=O)C(=O)N(Cc2cccnc2)C1c1ccncc1 (centres undefined) | inactive |  |
| CSc1ccc(CN(C)CC(=O)NCCc2ccccc2)cc1 | inactive |  |
| COc1ccccc1NC(=O)c1ccccc1NC(=O)c1ccccn1 | inactive |  |
| Cc1ccc(C(C)C)c(OCC#CCN2CCOCC2)c1 | inactive |  |
| CCOC(=O)c1[nH]c2c(c1C)C(=O)CC(c1ccco1)C2 (centres undefined) |  | AC50: 5.79 µM |
| N#Cc1c(-c2ccccc2)cc(C2CC2)nc1SCC(=O)c1cccs1 | inactive |  |
| COc1ccc(OC)c(NC(=O)c2cc3ccccc3cc2OC)c1 |  | activity, higher = inhibition (at 6.8 µM (top of the series)): inactive |
| Cc1cc(Cl)n2c(nc3cc(F)c(F)cc32)c1C#N |  | AC50: 5.68 µM |
| COc1cccc(NC(=O)NC2(C(F)(F)F)Oc3ccccc3O2)c1 |  | AC50: > 19.5 µM (inactive) |
| CC1Cc2ccccc2N1C(=O)COC(=O)c1ccccc1NCCO (centres undefined) | inactive |  |
| O=S(=O)(Nn1cnnc1)c1ccccc1 | inactive |  |
| O=C(CCCSc1nc2ccccc2c(=O)[nH]1)c1ccccc1 | inactive |  |
| CCOC(=O)Cc1csc(NC(=O)CSc2nnnn2-c2ccc(CC)cc2)n1 | inactive |  |
| OCC1OC(n2cnc3c(NCc4ccco4)ncnc32)C(O)C1O (centres undefined) |  | activity, higher = inhibition (at 2.1 µM (top of the series)): inactive |
| COc1cccc(NC(=O)CSc2nnc(Cc3ccc(OC)c(OC)c3)o2)c1 | inactive |  |
| C=CCN1C(=O)/C(=C/c2ccc(-c3ccc(F)cc3)o2)SC1=S | inactive |  |
| COc1ccc(C(=O)Nc2c(Cl)cc(Cl)cc2C(=O)N2CCOCC2)cc1 | inactive |  |
| CCOC(=O)C1CCCN(C(=O)c2cc(S(=O)(=O)N(C)C)ccc2N2CCCC2)C1 (centres undefined) | inactive |  |
| COc1ccc(/C=C2\CN(Cc3ccccc3)C/C(=C\c3ccc(OC)c(O)c3)C2=O)cc1O |  | activity, higher = inhibition (at 2.1 µM (top of the series)): inactive |
| Cc1ccc2c(c1)N(CC(=O)N1CCCCCC1)C(=O)C(C)O2 (centres undefined) | inactive |  |
| COc1ccc(NC(=O)c2ccccc2NC(=O)CSc2ccc(C)cc2)cc1 | inactive |  |
| Cn1c(=O)[nH]c(=O)c2c1nc([N+](=O)[O-])n2Cc1ccccc1 |  | AC50: 5.03 µM |
| Cc1nc(C)n(CC(=O)N2CCCC(C(=O)c3ccc(C(F)(F)F)cc3)C2)n1 (centres undefined) |  | activity, higher = inhibition (at 6.8 µM (top of the series)): inactive |
| NCCCC[C@H](N[C@@H](CCc1ccccc1)C(=O)O)C(=O)N1CCC[C@H]1C(=O)O | inactive |  |

| Structure (SMILES) | activity, higher = inhibition (at 19.5 µM (top of the series)) | also measured |
| --- | --- | --- |
| COCc1cc(C)nc(SCC(=O)Nc2cccc3cccnc23)c1C#N | inactive |  |
| COc1cc(C2C3=C(COC3=O)Oc3cc4c(cc32)OCO4)cc(OC)c1O (centres undefined) |  | AC50: 0.849 µM |
| COc1ccccc1C(=O)COC(=O)C1(C)CC1(Cl)Cl (centres undefined) | inactive |  |
| COc1ccc(S(=O)(=O)N2c3cc(Cl)ccc3Oc3nc4ccccc4nc32)cc1 |  | AC50: 3.14 µM |
| COc1ccc(OCCN2CCC(C(=O)NC(c3ccccn3)c3ccccc3OC)CC2)cc1 (centres undefined) |  | activity, higher = inhibition (at 6.8 µM (top of the series)): inactive |
| COc1cc(NC(=O)c2ccc(C)cc2C)ccc1NC(=O)c1cccs1 | inactive |  |
| CCN1CCN(c2cc(=O)n(-c3cc(Cl)ccc3C)c(=O)[nH]2)CC1 | inactive |  |
| COc1ccc(CNC(=O)COC(=O)c2cc(S(=O)(=O)N3CCOCC3)ccc2O)cc1OC | inactive |  |
| COc1ccccc1C(C)NC(=O)Cc1ccsc1 (centres undefined) | inactive |  |
| COc1ccccc1Nc1nnc(C)c(=O)[nH]1 | inactive |  |
| O=C1c2ccccc2C(Nc2ccc(S(=O)(=O)N3CCOCC3)cc2)N1c1ccccn1 (centres undefined) | inactive |  |
| O=C(c1cc(Cl)c(=O)n(Cc2ccccc2)c1)N1CCOCC1 | inactive |  |
| O=C(CCNC(=O)c1ccco1)Nc1ccc(OC(F)(F)F)cc1 | inactive |  |
| CCCc1cc(=O)oc2cc(OCc3cc(OC)c(OC)c(OC)c3)c(Cl)cc12 |  | AC50: 19.1 µM |
| CCCn1nnc(NC(=O)C(c2ccccc2)c2ccccc2)n1 | inactive |  |
| COc1ccc(NC(=O)C2(C)Cc3c(-c4cccc(NC(C)=O)c4)ccnc3O2)cn1 (centres undefined) |  | AC50: 8.99 µM |
| CC(C)C(=O)N=C1SC2CS(=O)(=O)CC2N1Cc1ccccc1 (centres undefined) | inactive |  |
| CC(OC(=O)c1c[nH]c2ccccc12)C(=O)N1CCCC1 (centres undefined) | inactive |  |
| O=C(c1ccc(Cl)c(Cl)c1)N(Cc1ccco1)c1ccc(O)cc1 | inactive |  |
| COC(CNC(=O)C1CCN(C(=O)c2cc3oc(C)cc3n2Cc2c(F)cccc2Cl)CC1)OC | inactive |  |
| Cc1c(NC(=O)c2cc3ccccc3oc2=O)c(=O)n(-c2ccccc2)n1C | inactive |  |
| CCC(=O)N(CCC1(C(C)C)CCOC(C)(C)C1)Cc1ccco1 (centres undefined) | inactive |  |
| CC1CN(S(=O)(=O)c2ccc(C(=O)NCCCn3ccnc3)cc2)CC(C)O1 (centres undefined) | inactive |  |
| COc1cc(-c2cnc3c(NC=O)cc(-c4ccccc4Cl)cn23)cc(OC)c1OC |  | AC50: 3.03 µM |

| Structure (SMILES) | activity, higher = inhibition (at 19.5 µM (top of the series)) | also measured |
| --- | --- | --- |
| CC(C)CCNC(=O)CCc1nnc(COc2ccccc2)o1 | inactive |  |
| Cc1cc(C)c(S(=O)(=O)N2CCN(S(=O)(=O)N3CCOCC3)CC2)c(C)c1 | inactive |  |
| COc1cc(CNCc2ccccc2)c(Br)cc1OC1CCCC1 | inactive |  |
| Cc1ccc(-c2cc(C(=O)NCc3ccccn3)c3ccccc3n2)cc1C | inactive |  |
| COc1ccc(CN2C3CCC2CC(NC(=O)c2cc(OC)c(OC)c(OC)c2)C3)cc1 (centres undefined) | inactive |  |
| COc1ccc(-c2nnc(SCC(=O)N3CCCc4ccccc43)o2)cc1OC | inactive |  |
| CNC(=O)c1ccc(NC(=O)c2cc(S(=O)(=O)N(C)C)ccc2N2CCCC2)cc1 | inactive |  |
| CCOC(=O)N1CCN(c2c(NCc3ccc(Cl)cc3)c(=O)c2=O)CC1 |  | AC50: > 19.5 µM (inactive) |
| COCCNCC(=O)Nc1nc(C)cs1 | inactive |  |
| CCN(CC)C(=O)c1sc2nc(-c3cccs3)cc(-c3cccs3)c2c1N |  | AC50: > 19.5 µM (inactive) |
| O=C(Nc1ccnc(-c2cccnc2)n1)c1cccs1 | inactive |  |
| CCC(C)n1c(-c2cccs2)nc2nc3ccccc3nc21 (centres undefined) | inactive |  |
| COc1cc(C(=O)NCCc2cn3ccc(C)cc3n2)cc(OC)c1OC | inactive |  |
| Cc1cc(C)c2nc3sc(C(=O)N4CCOCC4)c(N)c3cc2c1 |  | AC50: 1.85 µM |
| CN1CCc2nc3ccc(F)cc3c(C(N)=O)c2C1 | inactive |  |
| COc1ccc(C(=O)NCc2oc(-c3ccccc3)cc2C(=O)O)cc1 | inactive |  |
| CN(Cc1ccccc1)C(=O)CCC1CCN(C(=O)c2ccco2)CC1 | inactive |  |
| Nc1nonc1-c1nc2ccccc2n1CC(=O)NC1CCCC1 | inactive |  |
| CCOc1ncccc1C(=O)OCc1ccccc1 | inactive |  |
| CC(C)c1ccc(NC(=O)N2CCCC2C(=O)Nc2ccc(-n3cnnn3)cc2)cc1 (centres undefined) | inactive |  |
| COc1cc(/C=C/C(=O)OCC(=O)N2CCCc3ccccc32)ccc1O | inactive |  |
| COc1ccc(CC(=O)Nc2ccc(-c3noc(-c4cc(OC)c(OC)c(OC)c4)n3)cc2)cc1 |  | AC50: 13 µM |
| O=C(CCCOc1ccc(Br)cc1)NNC(=O)c1ccncc1 | inactive |  |
| CCC(C)C(=O)Nn1c(C2CC2)nc2cc(OC)c(OC)cc2c1=O (centres undefined) | inactive |  |

| Structure (SMILES) | activity, higher = inhibition (at 19.5 µM (top of the series)) | also measured |
| --- | --- | --- |
| O=C(Nc1ccc2oc(-c3ccc4ccccc4c3)nc2c1)c1cccs1 |  | activity, higher = inhibition (at 6.8 µM (top of the series)): inactive |
| Cc1ccc(Nc2cc(=O)[nH]c(=O)[nH]2)cc1C | inactive |  |
| Cc1ccc(-n2nnc3c(=O)n(CC(=O)OCc4ccccc4)cnc32)cc1 | inactive |  |
| COc1cccc(-c2cc(NC=O)c3ncc(-c4cc(OC)c(OC)c(OC)c4)n3c2)c1 |  | AC50: 4.25 µM |
| Cc1cccc(N2CCN(C(=O)c3cc4ccccc4oc3=O)CC2)c1C | inactive |  |
| Cc1cc(C)cc(NC(=O)CCc2nc3sc4c(c3c(=O)[nH]2)CCCC4)c1 |  | AC50: 14.6 µM |
| O=C(O)c1ccc(S(=O)(=O)c2ccc3c(c2)C(=O)N(c2ccc(Br)cc2)C3=O)cc1 | inactive |  |
| CCOC(=O)C1CCCN(CC(=O)Nc2c(C(=O)OC)[nH]c3ccc(Cl)cc23)C1 (centres undefined) | inactive |  |
| O=C(CCCCCn1c(=S)[nH]c2ccc(N3CCOCC3)cc2c1=O)NCc1ccccc1Cl |  | AC50: 6.23 µM |
| Cc1ccc(S(=O)(=O)c2nc(-c3ccccc3Cl)oc2N(C)C2CCN(C)CC2)cc1 | inactive |  |
| Cc1cccc2cc(COC(=O)c3ccco3)c(=O)[nH]c12 | inactive |  |
| CCOC(=O)C1(Cc2ccccc2)CCN(Cc2csc(C(C)=O)c2)CC1 | inactive |  |
| CC(C)CN(C(=O)COC(=O)CSc1ccccc1)c1c(N)n(Cc2ccccc2)c(=O)[nH]c1=O | inactive |  |
| COc1ccc(CC(=O)OCC(=O)NCc2ccc(Cl)cc2)cc1 | inactive |  |
| COc1ccccc1CNC(=O)CSC1=NCCS1 | inactive |  |
| COc1ccc2nc(N3C(=O)C(O)=C(C(=O)c4ccco4)C3c3ccccc3OC)sc2c1 (centres undefined) |  | AC50: > 19.5 µM (inactive) |
| O=C(NCC1CC1)NC(=O)c1c(F)cccc1Cl | inactive |  |
| COc1ccc(-c2cc(C(=O)Nc3ccc4c(c3)OCO4)no2)cc1 | inactive |  |
| Cc1ccc2c(c1)N(CC(=O)NCC1CCCO1)C(=O)C(C(C)C)O2 (centres undefined) | inactive |  |
| Cc1nnc2ccc(-c3ccc(NS(=O)(=O)c4ccc(Cl)s4)cc3)nn12 |  | AC50: 14.5 µM |
| C[C@@H]1CN([C@H](C)CO)C(=O)CCCn2cc(nn2)CO[C@H]1CN(C)C(=O)c1ccccc1 | inactive |  |
| Cc1ccc2c(COC(=O)c3ccccc3OC(F)F)cc(=O)oc2c1 |  | AC50: 12 µM |
